Experimental data published in patent publication US4230850A, “3-Substituted-4-aminoalkoxy-5,6-condensed ring-2-pyranones” (LIPHA, Lyonnaise Industrielle Pharmaceutique, priority 1976, dated 1980).

What was measured:
vertebral rate of flow = vertebral rate of flow in the anaesthetised dog; format: in vivo; details: papaverine = 1
Procedure: Likewise, the vasodilation produced by the compounds of the invention is measured by means of the vertebral rate of flow in the anaesthetised dog.

femoral artery = femoral artery rate of flow, electromagnetic flow meter, anaesthetised dog; format: in vivo; details: dog anaesthetised with Pentobarbital, papaverine = 1
Source text: The coefficients given in Table IV are expressed relatively to papaverine, which is given the coefficient 1, for the femoral dilation which it causes under similar conditions.

[1] = system: phosphodiesterase of cyclic AMP; experiment: inhibition of the phosphodiesterase of cyclic AMP in vitro; format: biochemical; design: unit not given beside the values; details: measured in vitro; unit not given
Source text: The compounds of the invention are capable of inhibiting the phosphodiesterase of cyclic AMP (adenosine monophosphate).
Table II gives the inhibition indices (ID50), measured in vitro, for some of the compounds of the invention.

[2] = system: citric acid aerosol cough; experiment: citric acid aerosol test on the guinea pig (anti-tussive); format: in vivo; details: administered in equitoxic dose per os
Source text: The compounds of the invention were compared with codeine.

[3] = system: intraventricular coronary artery; experiment: rate of flow of the intraventricular coronary artery, electromagnetic flow meter, anaesthetised dog; format: in vivo; details: intravenous, Dipyridamol = 100
Procedure: The rate of flow of the intraventricular coronary artery was measured with an electromagnetic flow meter on the anaesthetised dog.
The different test compounds, administered intravenously, have caused considerable increases in the rate of flow, as reported in Table I below (the standard used for comparison being 2,6-di-[di-(2-hydroxyethyl)amino]-4,8-dipiperidinopyrimido-[5,4-d]-pyrimidine, which has the B.P.C. approved name of "Dipyridamole").

[4] = system: mice placed in a confined atmosphere; experiment: protection against anoxia: survival time of mice placed in a confined atmosphere; format: in vivo, mouse; details: oral
Source text: As well as the vasodilatory activity, a strong protective action against the effects of anoxia has been found for the compounds of the invention. By way of example, Table VI indicates as a percentage the increase in the survival time caused by oral administration of certain compounds to mice placed in a confined atmosphere.

[5] = system: rats made hypertensive by the Goldblatt technique; experiment: decrease in hypertension in rats made hypertensive by the Goldblatt technique; format: in vivo, rat; details: oral, (HS) or (S) given after value, not defined
Procedure: Anti-hypertensive (hypotensive) activity has been found with the compounds of the invention. With rats made hypertensive by the Goldblatt technique (M. GOLDBLATT, J. LUNCH, R. F. MANZAL and W. W. SUMMERVILLE, J. of Exper. Med. 1934, 59, 347-379), decreases in hypertension were recorded after oral administration of the test compound. By way of example, Table III gives the decreases obtained with some of the compounds.

In the case of `COc1cccc2c(OCCN3CCOCC3)c(-c3ccccc3)c(=O)oc12` [Example 21, 8-Methoxy-4-(2'-morpholinoethoxy)-3-phenyl-coumarin], the “Coefficient/Papaverine (vertebral rate of flow)” value (vertebral rate of flow) is reported as 5 and the “Coefficient/Papaverine (femoral dilation)” value (femoral artery) is reported as 13.

`CN(C)CCCOc1c(-c2ccccc2)c(=O)oc2ccccc12` [Example 4, 4-(3'-Dimethylaminopropoxy)-3-phenyl-coumarin] was tested, and the “Coefficient/Papaverine (vertebral rate of flow)” value (vertebral rate of flow) was 6, the “Coefficient/Papaverine (femoral dilation)” value (femoral artery) was 60 and the “ID50 (inhibition indices)” value [1] was 150.

`CC(COc1c2c(oc(=O)c1-c1ccccc1)CCCCCC2)CN1CCOCC1` (stereo not drawn) [Example 51, 4-(3'-Morpholino-2'-methylpropoxy)-3-phenyl[1-2-b]-cyclooctano-(2H)-pyran-2-one] was tested, and the “% inhibition on average of number of coughs” value (“% inhibition on average” below) [2] was 60%.

In the case of `COc1ccc2c3c1O[C@H]1[C@@H](O)C=C[C@H]4[C@@H](C2)N(C)CC[C@@]341` [Codeine, reference compound], the “% inhibition on average” value [2] is reported as 55%.

`CCCCc1c(OCCN2CCOCC2)c2c(OCCN3CCOCC3)cc(OCCN3CCOCC3)cc2oc1=O` [Example 5, 3-Butyl-4,5,7-tri(2'-morpholinoethoxy)-coumarin] was tested, and the “Coefficient/Papaverine (vertebral rate of flow)” value (vertebral rate of flow) was 2.

With `O=c1oc2ccccc2c(OCC(O)CN2CCCCC2)c1-c1ccccc1` (stereo not drawn) [Example 37, 4-(3'-Piperidino-2'-hydroxypropoxy)-3-phenyl-coumarin] the “Coefficient/Papaverine (vertebral rate of flow)” value (vertebral rate of flow) was 9 and the “Coefficient/Papaverine (femoral dilation)” value (femoral artery) was 12.

For `O=c1oc2ccccc2c(OCCCN2CCOCC2)c1-c1ccccc1` [Example 16, 4-(3'-Morpholinopropoxy)-3-phenyl-coumarin], the “Coefficient related to Dipyridamol” value [3] was 250.

For `Cc1c(OCCN2CCOCC2)c2ccccc2oc1=O` [Example 9, 3-Methyl-4-(2'-morpholinoethoxy)-coumarin], the “Average % increase in survival time” value [4] was “+30%”.

For `CC(COc1c(-c2ccccc2)c(=O)oc2ccccc12)CN1CCOCC1` (stereo not drawn) [Example 19, 4-(3'-Morpholino-2'-methylpropoxy)-3-phenyl-coumarin], the “Coefficient/Papaverine (vertebral rate of flow)” value (vertebral rate of flow) was 3, the “Average % increase in survival time” value [4] was “+46%” and the “Decrease in hypertension in mm.Hg., 3 to 5 hours after administration” value (“Decrease in hypertension” for short) [5] was -18 mm.Hg. For the same molecule, the “ID50 (inhibition indices)” value [1] was 600.

In the case of `O=c1oc2cccc(OCCN3CCOCC3)c2c(OCCN2CCOCC2)c1-c1ccccc1` [Example 23, Bis-4,5-(2'-morpholinoethoxy)-3-phenyl-coumarin], the “Coefficient/Papaverine (vertebral rate of flow)” value (vertebral rate of flow) is reported as 4.5, the “Coefficient/Papaverine (femoral dilation)” value (femoral artery) is reported as 6 and the “Coefficient related to Dipyridamol” value [3] is reported as 300.

With `O=c1oc2ccccc2c(OCCN2CCOCC2)c1-c1ccccc1` [Example 2, 4-(2'-Morpholinoethoxy)-3-phenyl-coumarin] the “Coefficient/Papaverine (vertebral rate of flow)” value (vertebral rate of flow) was 2, the “Average % increase in survival time” value [4] was “+41%” and the “Decrease in hypertension” value [5] was -34 mm.Hg. For the same molecule, the “Coefficient related to Dipyridamol” value [3] was 150.

`O=c1oc2cccc(O)c2c(OCCN2CCOCC2)c1-c1ccccc1` [Example 30, 4-(2'-Morpholinoethoxy)-5-hydroxy-3-phenyl-coumarin] was tested, and the “% inhibition on average” value [2] was 47% and the “Average % increase in survival time” value [4] was “+65%”.

For `OCCN(CCO)c1nc(N2CCCCC2)c2nc(N(CCO)CCO)nc(N3CCCCC3)c2n1` [Dipyridamol, 2,6-di-[di-(2-hydroxyethyl)amino]-4,8-dipiperidinopyrimido-[5,4-d]-pyrimidine, reference compound], the “Coefficient related to Dipyridamol” value [3] was 100.

In the case of `O=c1oc2ccccc2c(OCCN2CCOCC2)c1-c1ccc(F)cc1` [Example 11, 3-(4'-Fluorophenyl)-4-(2"-morpholinoethoxy)-coumarin], the “Average % increase in survival time” value [4] is reported as “+45%”.

For `CN1CCN(CCCOc2c(-c3ccccc3)c(=O)oc3ccccc23)CC1` [Example 27, 4-[3-(4"-Methyl-1"-piperazinyl)-propoxy]-3-phenyl-coumarin], the “Coefficient/Papaverine (vertebral rate of flow)” value (vertebral rate of flow) was 3.

For `O=c1oc2c(c(OCCN3CCOCC3)c1-c1ccccc1)-c1ccccc1C2c1ccccc1` (stereo not drawn) [Example 45, 4-(2'-Morpholinoethoxy)-3,9-diphenyl-[2-1-b]-indeno-[2H]-pyran-2-one], the “Coefficient/Papaverine (femoral dilation)” value (femoral artery) was 60 and the “Decrease in hypertension” value [5] was -49 mm.Hg.

For `COc1ccc(Cc2nccc3cc(OC)c(OC)cc23)cc1OC` [Papaverine, reference compound], the “Coefficient/Papaverine (vertebral rate of flow)” value (vertebral rate of flow) was 1 and the “Coefficient/Papaverine (femoral dilation)” value (femoral artery) was 1.

`O=c1oc2ccccc2c(OCCN2CCCCC2)c1-c1ccccc1` [Example 3, 4-(2'-Piperidinoethoxy)-3-phenyl-coumarin] was tested, and the “ID50 (inhibition indices)” value [1] was 150.

`O=c1oc2c(c(OCCCN3CCOCC3)c1-c1ccccc1)CCCC2` [Example 47, 4-(3'-Morpholinopropoxy)-3-phenyl-5,6,7,8-tetrahydrocoumarin] was tested, and the “ID50 (inhibition indices)” value [1] was 200.

In the case of `O=c1oc2c(c(OCCN3CCOCC3)c1-c1ccccc1)CCCC2` [drawing 27], the “Coefficient/Papaverine (femoral dilation)” value (femoral artery) is reported as 12.

For `O=c1oc2ccccc2c(OCCN2CCOCC2)c1-c1ccc(Br)cc1` [Example 7, 3-(4'-Bromophenyl)-4-(2"-morpholinoethoxy)-coumarin], the “Average % increase in survival time” value [4] was “+50%”.

With `Cc1ccc2oc(=O)c(-c3ccccc3)c(OCCN3CCOCC3)c2c1` [Example 12, 6-Methyl-4-(2'-morpholinoethoxy)-3-phenyl-coumarin] the “Coefficient related to Dipyridamol” value [3] was 150.

In the case of `CC(COc1c2c(oc(=O)c1-c1ccccc1)CCCC2)CN1CCOCC1` (stereo not drawn) [Example 46, 4-(3'-Morpholino-2'-methylpropoxy)-3-phenyl-5,6,7,8-tetrahydrocoumarin], the “Average % increase in survival time” value [4] is reported as “+40%” and the “ID50 (inhibition indices)” value [1] is reported as 600.

With `COc1ccc2c(OCCN3CCOCC3)c(-c3ccccc3)c(=O)oc2c1` [Example 20, 7-Methoxy-4-(2'-morpholinoethoxy)-3-phenyl-coumarin] the “Coefficient/Papaverine (femoral dilation)” value (femoral artery) was 12.

For `O=c1oc2c(c(OCCN3CCOCC3)c1-c1ccccc1)CCc1ccccc1-2` [Example 44, 4-(2'-Morpholinoethoxy)-3-phenyl-5,6-dihydro-[h]-benzocoumarin], the “% inhibition on average” value [2] was 48%.

`O=c1oc2c(c(OCCN3CCOCC3)c1-c1ccccc1)CCCC2` [drawing 39] was tested, and the “Coefficient/Papaverine (vertebral rate of flow)” value (vertebral rate of flow) was 5.5.

`O=c1oc2c(c(OCCN3CCOCC3)c1-c1ccccc1)CCCC2` [drawing 49] was tested, and the “% inhibition on average” value [2] was 85%.

For `O=c1oc2c(O)cccc2c(OCCN2CCOCC2)c1-c1ccccc1` [Example 35, 8-Hydroxy-4-(2'-morpholinoethoxy)-3-phenyl-coumarin], the “Coefficient/Papaverine (vertebral rate of flow)” value (vertebral rate of flow) was 10, the “Coefficient/Papaverine (femoral dilation)” value (femoral artery) was 8 and the “Decrease in hypertension” value [5] was -44 mm.Hg.

For `Cc1ccc2oc(=O)c(-c3ccccc3)c(OCCCN3CCOCC3)c2c1`, the “Coefficient related to Dipyridamol” value [3] was 100.

With `O=c1oc2c(c(OCCN3CCOCC3)c1-c1ccccc1)CCCC2` [Example 14, 4-(2'-Morpholinoethoxy)-3-phenyl-5,6,7,8-tetrahydro-coumarin] the “Average % increase in survival time” value [4] was “+50%”.
